Experimental data published in the NIST ThermoML archive (doi:10.1021/acs.jced.8b00662).
± gives the expanded uncertainty stated by the source.

What was measured:
[1] = 100 kPa, Liquid; for viscosity: Falling or rolling sphere viscometry; for mass density: Vibrating tube method
[2] = xn = mol fraction of the nth substance listed; details: 100 kPa, Liquid; for viscosity: Falling or rolling sphere viscometry; for mass density: Vibrating tube method

c1ccc2c(c1)CCCC2 [1,2,3,4-tetrahydronaphthalene]
[1]
Details	mass density [kg/m3]	viscosity [mPa·s]
293.15 K	968.89 ± 1.2	2.233 ± 0.047
298.15 K	964.92 ± 1.2	2.019 ± 0.043
303.15 K	960.96 ± 1.1	1.838 ± 0.039
308.15 K	956.99 ± 1.1	1.681 ± 0.036
313.15 K	953.03 ± 1.1	1.546 ± 0.033
318.15 K	949.05 ± 1.1	1.428 ± 0.03
323.15 K	945.1 ± 1.1	1.324 ± 0.028
328.15 K	941.13 ± 1.1	1.233 ± 0.026
333.15 K	937.17 ± 1.1	1.151 ± 0.024
338.15 K	933.19 ± 1.1	1.079 ± 0.023
343.15 K	929.2 ± 1.1	1.013 ± 0.022

c1ccc2c(c1)CCCC2 [1,2,3,4-tetrahydronaphthalene] + CC(C)C1CCCCC1
[2], x1 = 1
Details	mass density [kg/m3]	viscosity [mPa·s]
293.15 K	968.89 ± 1.2	2.233 ± 0.047
298.15 K	964.92 ± 1.2	2.019 ± 0.043
303.15 K	960.96 ± 1.1	1.838 ± 0.039
308.15 K	956.99 ± 1.1	1.681 ± 0.036
313.15 K	953.03 ± 1.1	1.546 ± 0.033
318.15 K	949.05 ± 1.1	1.428 ± 0.03
323.15 K	945.1 ± 1.1	1.324 ± 0.028
328.15 K	941.13 ± 1.1	1.233 ± 0.026
333.15 K	937.17 ± 1.1	1.151 ± 0.024
338.15 K	933.19 ± 1.1	1.079 ± 0.023
343.15 K	929.2 ± 1.1	1.013 ± 0.022

c1ccc2c(c1)CCCC2 [1,2,3,4-tetrahydronaphthalene] + OCC1CC1
[2], x1 = 1
Details	mass density [kg/m3]	viscosity [mPa·s]
293.15 K	968.89 ± 1.2	2.233 ± 0.047
298.15 K	964.92 ± 1.2	2.019 ± 0.043
303.15 K	960.96 ± 1.1	1.838 ± 0.039
308.15 K	956.99 ± 1.1	1.681 ± 0.036
313.15 K	953.03 ± 1.1	1.546 ± 0.033
318.15 K	949.05 ± 1.1	1.428 ± 0.03
323.15 K	945.1 ± 1.1	1.324 ± 0.028
328.15 K	941.13 ± 1.1	1.233 ± 0.026
333.15 K	937.17 ± 1.1	1.151 ± 0.024
338.15 K	933.19 ± 1.1	1.079 ± 0.023
343.15 K	929.2 ± 1.1	1.013 ± 0.022

CC(C)C1CCCCC1 [(1-methylethyl)cyclohexane]
[1]
Details	mass density [kg/m3]	viscosity [mPa·s]
293.15 K	802.14 ± 0.97	1.093 ± 0.023
298.15 K	798.24 ± 0.97	1.016 ± 0.022
303.15 K	794.34 ± 0.96	0.947 ± 0.02
308.15 K	790.43 ± 0.96	0.886 ± 0.019
313.15 K	786.51 ± 0.95	0.831 ± 0.018
318.15 K	782.59 ± 0.95	0.782 ± 0.017
323.15 K	778.66 ± 0.95	0.738 ± 0.016
328.15 K	774.72 ± 0.94	0.698 ± 0.015
333.15 K	770.77 ± 0.94	0.661 ± 0.014
338.15 K	766.81 ± 0.93	0.628 ± 0.013
343.15 K	762.84 ± 0.93	0.598 ± 0.013

OCC1CC1 [cyclopropylmethanol]
[1]
Details	mass density [kg/m3]	viscosity [mPa·s]
293.15 K	913.02 ± 1.1	3.988 ± 0.085
298.15 K	908.96 ± 1.1	3.455 ± 0.074
303.15 K	904.87 ± 1.1	3.009 ± 0.064
308.15 K	900.74 ± 1.1	2.635 ± 0.056
313.15 K	896.59 ± 1.1	2.321 ± 0.049
318.15 K	892.38 ± 1.1	2.054 ± 0.044
323.15 K	888.17 ± 1.1	1.825 ± 0.039
328.15 K	883.86 ± 1.1	1.629 ± 0.035
333.15 K	879.52 ± 1.1	1.46 ± 0.031
338.15 K	875.1 ± 1.1	1.316 ± 0.028
343.15 K	870.62 ± 1.1	1.19 ± 0.025

OCC1CC1 [cyclopropylmethanol] + CC(C)C1CCCCC1
[2], x2 = 0
Details	mass density [kg/m3]	viscosity [mPa·s]
293.15 K	913.02 ± 1.1	3.988 ± 0.085
298.15 K	908.96 ± 1.1	3.455 ± 0.074
303.15 K	904.87 ± 1.1	3.008 ± 0.064
308.15 K	900.74 ± 1.1	2.635 ± 0.056
313.15 K	896.59 ± 1.1	2.321 ± 0.049
318.15 K	892.38 ± 1.1	2.054 ± 0.044
323.15 K	888.17 ± 1.1	1.825 ± 0.039
328.15 K	883.86 ± 1.1	1.629 ± 0.035
333.15 K	879.52 ± 1.1	1.46 ± 0.031
338.15 K	875.1 ± 1.1	1.317 ± 0.028
343.15 K	870.62 ± 1.1	1.19 ± 0.025
